Data on nine compounds can be found in patent publication US12077508B2, “Inhibitors of the Notch transcriptional activation complex kinase (“NACK”) and methods for use of the same” (UNIVERSITY OF MIAMI, priority 2018, dated 2024).

Experiment [1] deals with T1, NACK (Mus musculus, UniProt Q571I4).
T1 sequence (Q571I4 1-1373): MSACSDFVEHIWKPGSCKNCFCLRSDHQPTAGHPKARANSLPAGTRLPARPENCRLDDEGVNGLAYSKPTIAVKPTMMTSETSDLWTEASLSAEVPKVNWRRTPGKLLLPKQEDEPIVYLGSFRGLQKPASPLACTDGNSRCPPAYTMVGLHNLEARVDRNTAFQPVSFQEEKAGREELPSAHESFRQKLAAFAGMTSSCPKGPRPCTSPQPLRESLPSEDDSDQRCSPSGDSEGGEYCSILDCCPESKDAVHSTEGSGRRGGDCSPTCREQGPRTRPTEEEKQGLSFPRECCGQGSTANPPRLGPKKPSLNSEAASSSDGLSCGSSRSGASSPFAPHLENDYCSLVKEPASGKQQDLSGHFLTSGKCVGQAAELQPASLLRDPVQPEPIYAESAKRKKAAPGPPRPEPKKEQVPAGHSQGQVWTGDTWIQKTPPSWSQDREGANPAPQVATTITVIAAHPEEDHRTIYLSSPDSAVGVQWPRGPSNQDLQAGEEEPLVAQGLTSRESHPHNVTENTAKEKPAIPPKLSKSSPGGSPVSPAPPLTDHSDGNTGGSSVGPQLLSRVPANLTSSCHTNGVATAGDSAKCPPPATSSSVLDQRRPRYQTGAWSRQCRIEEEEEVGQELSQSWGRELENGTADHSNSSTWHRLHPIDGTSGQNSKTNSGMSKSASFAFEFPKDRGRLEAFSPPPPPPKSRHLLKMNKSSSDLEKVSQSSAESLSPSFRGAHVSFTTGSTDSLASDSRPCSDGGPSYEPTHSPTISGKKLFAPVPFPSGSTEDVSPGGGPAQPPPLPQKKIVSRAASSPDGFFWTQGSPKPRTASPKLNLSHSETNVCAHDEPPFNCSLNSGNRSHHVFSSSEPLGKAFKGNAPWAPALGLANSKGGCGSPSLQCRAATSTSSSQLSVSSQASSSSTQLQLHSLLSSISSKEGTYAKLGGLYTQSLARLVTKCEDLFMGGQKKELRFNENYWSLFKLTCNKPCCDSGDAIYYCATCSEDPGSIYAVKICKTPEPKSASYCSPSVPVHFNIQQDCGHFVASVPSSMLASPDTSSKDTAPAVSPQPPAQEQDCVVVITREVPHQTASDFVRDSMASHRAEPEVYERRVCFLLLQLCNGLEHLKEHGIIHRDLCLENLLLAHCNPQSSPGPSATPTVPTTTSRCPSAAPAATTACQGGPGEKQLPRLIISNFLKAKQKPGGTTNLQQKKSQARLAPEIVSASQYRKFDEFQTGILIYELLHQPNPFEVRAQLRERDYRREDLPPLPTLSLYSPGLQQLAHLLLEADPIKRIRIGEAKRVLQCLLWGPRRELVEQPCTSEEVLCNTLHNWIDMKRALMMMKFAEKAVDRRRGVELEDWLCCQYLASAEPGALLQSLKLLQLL
In words: Surface plasmon resonance (SPR) binding to GST tagged NACK. The procedure:
The interaction between inhibitor Z271-0326 and target NACK was characterized using surface plasmon resonance (SPR). For this purpose, GST tagged NACK was captured by a GST antibody that was previously immobilized onto the surface of the chip through standard amide coupling. The dissociation constants associated with binding of the compounds to NACK was determined using the equilibrium approach, which consists of plotting the equilibrium response (Req) as a function of concentration of the compound and fitting the data to a 1:1 binding model.
A GST capture kit (GE Healthcare) were utilized to covalently immobilize an anti-GST antibody, provided in the kit, to the sensor chip surface (CM5 chip, GE Healthcare) by following the manufacturer's instructions. Capture were performed by injecting GST-NACK (1 μg/μL) over the immobilized anti-GST antibody in Hepes buffer (10 mM Hepes, pH 7.5, 150 mM NaCl, 3 mM EDTA, 0.0005% NP-40) for 7 min at 10 μL/min. A reference flow cell was prepared by capturing GST following the procedure described above. […] Experiments were performed on a Biacore T200 instrument (GE Healthcare) at 25° C. Small molecule inhibitors binding to NACK were performed in 50 mM Tris buffer, pH 7.5, containing 150 mM NaCl, 10 mM MgCl2 and 5% DMSO (running buffer). The SPR signal arising from the sample was corrected for its respective control containing DMSO. Data visualization and analysis was performed using Biacore T200 software (GE Healthcare) and Origin 8.0 (OriginLab).

For experiment [2], the system named is Notch target genes. In words: RT-qPCR of Notch target genes in Notch/NACK-dependent cells. Format: cell-based, human. The conditions noted are these: for down regulation of Notch target genes (q-PCR profile): compared to Z271-0326, FIGS. 13A-13D. The procedure:
To assess the effect of NACK inhibitor on Notch target gene transcription, Notch/NACK-dependent cell lines were treated with NACK inhibitors. The cells were also treated with DAPT as a positive control. DMSO treated cells served as a vehicle control for comparison. Gene expression was normalized to HPRT, and TBP served as a negative control to validate normalization.
Reverse transcription and qPCR analysis were performed as described previously (See Weaver et al., Cancer Research 74, 4741-4751 (2014)). Gene expression was normalized to the TATA-binding protein (“TBP”) gene. As a control, hypoxanthine phosphoribosyltransferase 1 (“HPRT”) gene expression was also monitored.
(In general: In qPCR the cycle at which signal appears reflects the starting amount.)

The test system of experiment [3] is OE33 cell line. Briefly: Colony formation assay in OE33 cells. The format is cell-based, human. The conditions noted are these: for EC50: Homo sapiens, read-out: EC50 colony formation titration assay; for OE33 colony formation: cells treated every other day, FIGS. 5B, 5C. The method, then: (§1) A cell based colony formation assay was used in these experiments. Normal mouse mammary epithelia HC11 cells have little or no endogenous NACK expression, and NACK knockdown had no effect on the growth of HC11 cells (FIG. 5A, lower panel). […] Knockdown of NACK was confirmed by western blot and qPCR (FIGS. 1D and 1E). […] Therefore, compounds that affect OE33 colony formation but not HC11 were desired. In order to screen the compounds, cells were treated with test compounds every other day.
(§2) Colony formation assay was utilized to determine the effect of small molecule inhibitors on cell proliferation. In general, different cell lines (NACK dependent or independent) will be seeded in 6-well plates at a density of 2000 cells per well and allowed to attach overnight. Inhibitor treatment commenced 24 hours post seeding, and the media containing inhibitor was changed every 48 hours thereafter. After 168 hours, colonies were be stained with Crystal Violet (Millipore) and counted.

Experiment [4] has as its system HC11 cells. Briefly: Colony formation assay in HC11 cells. The format is cell-based, mouse. The conditions noted are these: Notch/NACK independent cell line; FIG. 5B. The procedure:
as §1, §2

For experiment [5], the target named is T2, NACK binding to the Notch transcription complex (Mus musculus, UniProt Q571I4).
T2 construct: expressed in transfected cells; host or cells: 293T
T2 sequence (Q571I4 1-1373): T1 sequence (Q571I4 1-1373)
Briefly: CSL-DNA affinity precipitation (CSL-DAP) assay. The format is cell-based. The conditions noted are these: 293T cells transfected with N1ICD, Maml1, NACK; 2 hours treatment; FIG. 6A. The method, then:
To determine the specificity of hit-to-lead compounds targeting NACK activity, it was evaluated whether iNACK can block NACK binding to the Notch complex by conducting CSL-DNA affinity precipitation (CSL-DAP) assay. […] In the CSL-DAP assay, 293T cells were co-transfected with N1^ICD, Maml1 and NACK. Transfections were performed using LipoJet transfection reagent (SL100468, SignaGen Laboratories) according to the manufacturer recommended protocol. After two days of transfection, cells were treated with compounds for 2 hours prior collecting the cell lysate. Cell lysates were incubated with DNA streptavidin beads. Proteins that bound to the beads were analyzed by Western blot.
Western blot was performed as described previously (See Weaver et al., Cancer Research 74, 4741-4751 (2014)). Primary antibodies were α-NACK (1:1,000; against aa209-287 of NACK and affinity purified), α-CSL (1:1,000; generated against full-length CSL and affinity purified), α-Maml1 (1:5,000; Cell Signaling Technology), α-cleaved-Notch1 (1:1,000; Cell Signaling Technology).

In experiment [6] the test system is OE33 spheres. Briefly: Tumor sphere formation assay in OE33. Particulars: OE33; FIG. 7A. Format: cell-based, human. The procedure:
In order to assess the effect of hit to lead compounds on the proliferation of stem cell like population of Notch/NACK dependent cells, the primary tumor spheres were treated with NACK inhibitor and allow the cells to be propagated as secondary cultures. To obtain tumor spheres, cells were cultured in DMEM/F12 with 2% B-27 serum-free supplement (17604-044; Invitrogen), 20 ng/mL epidermal growth factor (EGF; PHG0311L; Invitrogen), and 20 ng/mL basic fibroblastic growth factor (bFGF; PHG0266; Invitrogen) for 14 days. Resulting tumor spheres were examined and counted under the microscope. Furthermore, the tumor spheres were collected for further RT-qPCR analysis to test the effect of hit to lead compounds on the stem like target genes.

Entries after “also recorded” stand apart in the source; their conditions may differ. Like-named read-outs stand apart in the source and are kept apart here.

Take `Nc1ncnc2c1ncn2[C@@H]1O[C@H](COP(=O)(O)OP(=O)(O)NP(=O)(O)O)[C@@H](O)[C@H]1O` [AMP-PNP]: the Kd is approximately 1500 nM in experiment [1] (SPR, FIG. 4C, read-out: binding constant) and 1500 ± 500 nM in experiment [1] (equilibrium approach, 1:1 binding model, 25° C., FIG. 10A, read-out: KD).

In the case of `CCN(CC)C(=O)c1cnn2ccc(C3CCN(S(=O)(=O)c4ccc(NC(=O)OC)cc4)CC3)cc12` [Compound 7C, methyl N-[4-({4-[3-(diethylcarbamoyl)pyrazolo[1,5-a]pyridin-5-yl]piperidinyl}sulfonyl)phenyl]carbamate], the “expression of oncogenes cMYC, CCND1, HES1 (Q-PCR)” value in experiment [2] (with respect to DMSO and Z271-0326, FIG. 16) was “downregulate oncogenes cMYC, CCND1, and HES1”.

Consider `CC(=O)Nc1ccc(S(=O)(=O)N2CCC(c3ccn4ncc(C(=O)N5CCCC5)c4c3)CC2)cc1` [Compound 7H, N-[4-({4-[3-(pyrrolidine-1-carbonyl)pyrazolo[1,5-a]pyridin-5-yl]piperidin-1-yl}sulfonyl)phenyl]acetamide], for which the “down regulation of Notch target genes (q-PCR profile)” value in experiment [2] is on record as “performed the best in down regulating Notch target genes, even better than Z271-0326”.

With `CC(=O)Nc1ccc(S(=O)(=O)N2CCC(c3ccn4ncc(C(=O)N5CCCCC5)c4c3)CC2)cc1` [Compound 7M, N-[4-({4-[3-(piperidine-1-carbonyl)pyrazolo[1,5-a]pyridin-5-yl]piperidin-1-yl}sulfonyl)phenyl]acetamide], the “down regulation of Notch target genes (q-PCR profile)” value in experiment [2] was “can also down regulate Notch target genes, but not as good as compound 7H”.

In the case of `CC(C)(C)OC(=O)Nc1ccc(S(=O)(=O)N2CCC(c3ccn4ncc(C(=O)N5CCCC5)c4c3)CC2)cc1` [Compound 71B, tert-butyl N-[4-({4-[3-(pyrrolidine-1-carbonyl)pyrazolo[1,5-a]pyridin-5-yl]piperidin-1-yl}sulfonyl)phenyl]carbamate], the EC50 in experiment [3] (OE33, OE33 cell line, FIG. 18) is 608 nM.

As for `CC(=O)Nc1ccc(S(=O)(=O)N2CCC(c3ccn4ncc(C(=O)N5CCC5)c4c3)CC2)cc1` [Compound 71C, N-[4-({4-[3-(azetidine-1-carbonyl)pyrazolo[1,5-a]pyridin-5-yl]piperidin-1-yl}sulfonyl)phenyl]acetamide], the EC50 in experiment [3] (OE33, OE33 cell line, FIG. 18) was 330 nM.

`N#Cc1cccc(NC(=O)N2CCC(c3ccn4ncc(C(=O)N5CCCCC5)c4c3)CC2)c1` [Compound Z270-0137]: in experiment [4], the “HC11 colony formation / viability” value is recorded as “but not HC11 cell”. Further, the OE33 colony formation entry in experiment [3] is on record as “effectively inhibit OE33 colony formation”.

Turning to `O=C(c1cnn2ccc(C3CCN(S(=O)(=O)Cc4ccccc4)CC3)cc12)N1CCCCC1` [Compound Z271-0132], the “inhibition of NACK binding to the Notch transcription complex” value in experiment [5] is “dramatically inhibit NACK binding to the NOTCH transcription complex; also recorded: blocks binding of NACK to the ternary complex”. For the same compound, the “selectivity between OE33 and HC11 cell lines” value in experiment [3] (colony formation) is “displays no selectivity between OE33 and HC11 cell lines”.

Take `CC1CCN(C(=O)c2cnn3ccc(C4CCN(S(=O)(=O)c5ccccc5)CC4)cc23)CC1` [Compound Z271-0191]: the “mRNA levels of Notch target genes Hes1 and Notch3” value in experiment [2] (OE33, FIG. 6B) is “decrease the mRNA levels of Notch target genes Hes1 and Notch3”. The secondary sphere formation result in experiment [6] is reported as “less effective compared to Z271-0326”. In addition, in experiment [4], the “HC11 colony formation / viability” value is recorded as “but not HC11 cell”. In experiment [5], the “inhibition of NACK binding to the Notch transcription complex” value was “dramatically inhibit NACK binding to the NOTCH transcription complex”. Moreover, the EC50 in experiment [3] (OE33, estimated, FIG. 6C) is 3740 nM. The OE33 colony formation result in experiment [3] is listed as “effectively inhibit OE33 colony formation”.
